Data taken from PMC9103660, “Two Novel Antihypertensive Peptides Identified in Millet Bran Glutelin-2 Hydrolysates: Purification, In Silico Characterization, Molecular Docking with ACE and Stability in Various Food Processing Conditions” (Foods, 2022).
Entries after “also recorded” stand apart in the source; their conditions may differ. Peptide text beside a SMILES is read from it.

Legend:
ACE [1] = assay: ACE inhibition after simulated gastrointestinal digestion; assay type: in vitro ADME; conditions: simulated gastric fluid (pepsin, pH 2.0) 90 min then simulated intestinal fluid (trypsin, bile salt, pH 6.8) 180 min, 37 °C, peptide 1 mg/mL; read-out ACE IC50 before/after
Description: As per the same procedure described by Jimsheena and Gowda, the inhibition of ACE was evaluated by comparing the quantity of produced hippuric acid before and after the addition of the peptides. The IC50 value was calculated from the regression equation of ACE inhibition percentage for different concentrations of the sample and defined as the concentration of sample inhibiting ACE activity by 50%.
Mixtures of trypsin (0.45 g), pig bile salt (3 g) and NaHCO3 (6.25 g) dissolved in 100 mL of dH2O (pH 6.8) were used to simulate the intestinal fluid, whereas pepsin (40 mg) and NaCl (0.877 g) dissolved in 100 mL of dH2O (pH 2.0) were used to simulate the gastric fluid (Sun et al., 2021). Peptide solutions (dissolved in ultrapure water, 1 mg/mL) were incubated at 37 °C in a stirring bath (140 r/min) for 15 min, and then the simulated gastric fluid was added (gastric fluid: peptide solution = 1: 10 v/v), and the mixture was further incubated at 37 °C (140 r/min) for 90 min. Then, the reaction solution was adjusted to pH 6.8 with Na2HPO4. The simulated intestinal fluid (the fluid: peptide solution = 1: 10, v/v) was added, and the mixture was stirred (140 r/min) at 37 °C for 180 min. All reaction solutions were heated at 100 °C for 8 min to inactivate the enzymes. The ACE inhibition activities of the peptides before and after digestion were separately determined to evaluate their stability.

[2] = proline-rich literature peptides; cited from earlier work
Excerpt: ACE-inhibitory peptides should have sufficient resistance to digestion by proteases existing in the gastrointestinal tract to exert antihypertension activity in the body.

ACE [3] = test system: ACE; design: method as in 2 sources, ref 34, 35 = [34]; PMID 32220144; doi:10.1111/1750-3841.15115; 34. Zheng Y.J. Wang X. Zhuang Y.L. Li Y. Shi P.Q. Tian H.L. Li X.T. Chen X. Isolation of novel ACE-inhibitory peptide from naked oat globulin hydrolysates in silico approach: Molecular docking, in viv || [35]; PMID 29606478; doi:10.1016/j.foodchem.2018.02.107; 35. Tu M. Wang C. Chen C. Zhang R. Liu H. Lu W. Jiang L. Du M. Identification of a novel ACE-inhibitory peptide from casein and evaluation of the inhibitory mechanisms Food Chem. 2018 256 98 104 10.10 ||| ref 20 = [20]; doi:10.1016/j.jff.2016.11.021; 20. Zheng Y.J. Li Y. Zhang Y.L. Ruan X.H. Zhang R.G. Purification, characterization, synthesis, in vivo ACE inhibition and in vitro antihypertensive activity of bioactive peptides derived from palm ke; conditions: cited from earlier work; for IC50: literature peptides, read-out: IC50 (ACE inhibition)

Row | Compound | stability during simulated gastrointestinal digestion (ACE [1]) | stability during gastrointestinal digestion [2] | inhibition mode towards ACE (ACE [3]) | IC50 (ACE [3])
1 | CC(C)C[C@H](NC(=O)[C@H](CC(C)C)NC(=O)[C@@H]1CCCN1)C(=O)N[C@@H](CCCCN)C(=O)O [PLLK, Pro-Leu-Leu-Lys] (H-PLLK-OH) | resistant; also recorded: relatively stable; also recorded: relatively high stability |  |  | 
2 | CSCC[C@H](NC(=O)[C@@H]1CCCN1C(=O)[C@@H]1CCCN1)C(=O)N[C@@H](Cc1c[nH]c2ccccc12)C(=O)N1CCC[C@H]1C(=O)N[C@@H](Cc1ccccc1)C(=O)N[C@H](C(=O)O)C(C)C [PPMWPFV, Pro-Pro-Met-Trp-Pro-Phe-Val] (H-PPMWPFV-OH) | resistant; also recorded: relatively stable; also recorded: relatively high stability |  |  | 
3 | ELHPQ [proline-rich peptide identified in canary seeds] |  | excellent stability |  | 
4 | KPVPR [proline-rich peptide identified in canary seeds] |  | excellent stability |  | 
5 | LHPQ [proline-rich peptide identified in canary seeds] |  | excellent stability |  | 
6 | NMAINPSKENLCSTFCK |  |  | a competitive inhibitor of ACE | 129 µM
7 | SSYYPFK |  | excellent stability | a competitive inhibitor | 91.8 µM
